Like-named read-outs stand apart in the source and are kept apart here.
How the values were obtained:
Assay in all cases: SelectScreen Kinase Profiling, single point inhibition and IC50 for off-target kinases
Format in all cases: biochemical
[1] = molecular target: T1, off-target kinases (Homo sapiens, UniProt O00329); conditions: PIK3CD/PIK3R1 (p110 delta/p85 alpha), Adapta, ATP Km app
T1 sequence (O00329 1-1044): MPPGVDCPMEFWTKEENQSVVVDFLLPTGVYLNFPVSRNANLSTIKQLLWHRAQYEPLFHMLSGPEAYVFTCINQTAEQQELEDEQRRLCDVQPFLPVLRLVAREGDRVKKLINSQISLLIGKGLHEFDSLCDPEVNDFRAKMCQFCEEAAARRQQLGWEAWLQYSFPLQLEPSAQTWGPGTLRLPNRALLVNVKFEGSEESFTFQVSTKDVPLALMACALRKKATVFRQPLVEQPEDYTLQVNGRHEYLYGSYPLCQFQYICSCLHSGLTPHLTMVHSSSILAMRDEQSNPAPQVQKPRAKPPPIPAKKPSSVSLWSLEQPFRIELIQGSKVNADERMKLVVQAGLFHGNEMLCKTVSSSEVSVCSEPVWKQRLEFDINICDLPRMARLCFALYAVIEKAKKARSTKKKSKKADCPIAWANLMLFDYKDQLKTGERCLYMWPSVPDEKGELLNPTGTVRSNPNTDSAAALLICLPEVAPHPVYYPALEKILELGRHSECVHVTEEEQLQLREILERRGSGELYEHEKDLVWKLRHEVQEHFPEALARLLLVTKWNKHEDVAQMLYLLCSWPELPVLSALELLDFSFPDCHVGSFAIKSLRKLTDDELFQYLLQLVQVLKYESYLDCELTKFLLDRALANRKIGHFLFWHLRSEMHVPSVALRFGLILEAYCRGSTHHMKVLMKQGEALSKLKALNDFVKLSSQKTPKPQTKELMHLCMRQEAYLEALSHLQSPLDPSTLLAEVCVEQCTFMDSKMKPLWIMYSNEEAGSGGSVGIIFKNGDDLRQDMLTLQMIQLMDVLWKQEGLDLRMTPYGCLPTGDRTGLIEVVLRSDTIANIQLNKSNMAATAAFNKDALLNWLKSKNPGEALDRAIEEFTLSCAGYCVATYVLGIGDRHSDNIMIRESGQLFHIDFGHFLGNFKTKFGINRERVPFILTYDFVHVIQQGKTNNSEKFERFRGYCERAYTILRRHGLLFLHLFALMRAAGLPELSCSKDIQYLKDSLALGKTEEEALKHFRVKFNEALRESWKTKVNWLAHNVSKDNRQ

[2] = molecular target: off-target kinases (Homo sapiens, UniProt P30291); conditions: WEE1, LanthaScreen Binding
[3] = molecular target: off-target kinases (Homo sapiens, UniProt Q8N5S9); conditions: CAMKK1 (CAMKKA), LanthaScreen Binding
[4] = molecular target: off-target kinases (Homo sapiens, UniProt Q9Y572); conditions: RIPK3, LanthaScreen Binding
[5] = molecular target: off-target kinases (Homo sapiens, UniProt Q9Y6M4); conditions: CSNK1G3 (CK1 gamma 3), ZLYTE, ATP Km app
Sequence of off-target kinases (Homo sapiens, UniProt Q9Y6M4) (Q9Y6M4 whole entry): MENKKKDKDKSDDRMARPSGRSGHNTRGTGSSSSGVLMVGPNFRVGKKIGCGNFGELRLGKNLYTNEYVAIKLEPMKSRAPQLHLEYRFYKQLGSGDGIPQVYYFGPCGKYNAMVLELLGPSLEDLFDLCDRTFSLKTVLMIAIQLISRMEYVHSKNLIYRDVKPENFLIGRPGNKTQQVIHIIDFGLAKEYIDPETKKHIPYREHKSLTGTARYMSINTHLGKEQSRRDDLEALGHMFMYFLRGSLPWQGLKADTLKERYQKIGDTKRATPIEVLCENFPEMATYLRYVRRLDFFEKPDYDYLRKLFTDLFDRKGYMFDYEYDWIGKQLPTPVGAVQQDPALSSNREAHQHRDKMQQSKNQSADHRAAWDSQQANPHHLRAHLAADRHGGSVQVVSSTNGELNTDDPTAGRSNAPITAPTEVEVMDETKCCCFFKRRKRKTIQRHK

Sequence of off-target kinases (Homo sapiens, UniProt P30291) (P30291 whole entry): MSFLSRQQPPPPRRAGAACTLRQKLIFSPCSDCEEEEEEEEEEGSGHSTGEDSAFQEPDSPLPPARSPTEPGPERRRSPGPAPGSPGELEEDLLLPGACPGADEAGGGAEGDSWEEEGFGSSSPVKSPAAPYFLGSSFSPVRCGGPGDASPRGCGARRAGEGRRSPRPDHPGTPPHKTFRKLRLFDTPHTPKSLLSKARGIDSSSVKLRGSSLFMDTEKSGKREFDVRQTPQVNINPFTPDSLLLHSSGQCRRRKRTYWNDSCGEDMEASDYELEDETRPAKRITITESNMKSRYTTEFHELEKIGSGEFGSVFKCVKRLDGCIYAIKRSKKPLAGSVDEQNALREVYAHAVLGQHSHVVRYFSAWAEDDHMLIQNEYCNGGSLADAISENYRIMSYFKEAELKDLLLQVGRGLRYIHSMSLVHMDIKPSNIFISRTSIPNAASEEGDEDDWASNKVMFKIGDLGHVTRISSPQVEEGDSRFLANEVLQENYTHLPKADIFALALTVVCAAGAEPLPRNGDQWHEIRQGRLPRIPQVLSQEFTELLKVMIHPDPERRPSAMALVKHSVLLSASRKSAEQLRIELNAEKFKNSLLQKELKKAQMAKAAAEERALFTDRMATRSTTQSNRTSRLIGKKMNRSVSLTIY
Sequence of off-target kinases (Homo sapiens, UniProt Q9Y572) (Q9Y572 whole entry): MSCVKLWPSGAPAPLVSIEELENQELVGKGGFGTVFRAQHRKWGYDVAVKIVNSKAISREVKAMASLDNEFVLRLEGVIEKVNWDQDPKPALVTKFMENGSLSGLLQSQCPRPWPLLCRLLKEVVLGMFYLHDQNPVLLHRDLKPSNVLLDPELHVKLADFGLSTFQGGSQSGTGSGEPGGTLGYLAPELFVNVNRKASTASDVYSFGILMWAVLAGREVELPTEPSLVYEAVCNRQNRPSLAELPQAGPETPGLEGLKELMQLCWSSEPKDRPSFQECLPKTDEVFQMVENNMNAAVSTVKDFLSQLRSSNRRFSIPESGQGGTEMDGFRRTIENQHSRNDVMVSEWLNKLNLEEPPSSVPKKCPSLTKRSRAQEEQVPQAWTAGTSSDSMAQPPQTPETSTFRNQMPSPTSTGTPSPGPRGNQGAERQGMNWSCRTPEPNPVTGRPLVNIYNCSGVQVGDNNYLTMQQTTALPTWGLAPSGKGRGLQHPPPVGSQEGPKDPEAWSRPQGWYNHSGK
Sequence of off-target kinases (Homo sapiens, UniProt Q8N5S9) (Q8N5S9 whole entry): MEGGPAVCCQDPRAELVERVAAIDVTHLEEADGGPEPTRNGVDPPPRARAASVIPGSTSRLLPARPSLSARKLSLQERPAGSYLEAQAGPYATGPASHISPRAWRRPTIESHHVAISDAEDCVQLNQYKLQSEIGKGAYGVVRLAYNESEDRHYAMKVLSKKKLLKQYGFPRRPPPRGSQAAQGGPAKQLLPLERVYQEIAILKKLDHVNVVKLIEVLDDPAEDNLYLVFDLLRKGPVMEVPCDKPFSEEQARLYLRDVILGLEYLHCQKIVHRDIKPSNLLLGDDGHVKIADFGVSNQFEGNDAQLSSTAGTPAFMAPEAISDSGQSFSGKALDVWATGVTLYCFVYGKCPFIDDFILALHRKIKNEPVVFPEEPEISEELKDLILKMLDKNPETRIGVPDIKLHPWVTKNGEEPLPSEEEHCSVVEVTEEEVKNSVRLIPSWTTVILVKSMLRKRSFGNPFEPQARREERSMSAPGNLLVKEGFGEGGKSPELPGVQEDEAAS

**Q.** What does the source list for `N#Cc1cc(-c2ncnc(Nc3ccc(N4CCN(C5COC5)CC4)cc3)n2)ccc1OC1CCOCC1` [Compound 1, 5-(4-((4-(4-(oxetan-3-yl)piperazin-1-yl)phenyl)amino)-1,3,5-triazin-2-yl)-2-((tetrahydro-2H-pyran-4-yl)oxy)benzonitrile]?
**A.** inhibition ([1]; read-out: % Inhibition 1): 22%; inhibition ([1]; read-out: % Inhibition 2): 9%; inhibition ([1]; read-out: % Inhibition Avg): 16%; inhibition ([2]; read-out: % Inhibition 1): 28%; inhibition ([2]; read-out: % Inhibition 2): 36%; inhibition ([2]; read-out: % Inhibition Avg): 32%; inhibition ([3]; read-out: % Inhibition 1): 2%; inhibition ([3]; read-out: % Inhibition 2): -1%; inhibition ([3]; read-out: % Inhibition Avg): 0%; inhibition ([4]; read-out: % Inhibition 1): -1%; inhibition ([4]; read-out: % Inhibition 2): 1%; inhibition ([4]; read-out: % Inhibition Avg): 0%; inhibition ([5]; read-out: % Inhibition 1): 4%; inhibition ([5]; read-out: % Inhibition 2): -2%; inhibition ([5]; read-out: % Inhibition Avg): 1%

From patent US11572590B2, “Methods for evaluating tumor cell spheroids using 3D microfluidic cell culture device” (Dana-Farber Cancer Institute, Inc., priority 2017, dated 2023)
